Test results from patent US9598416B2, “Substituted benzothienyl-pyrrolotriazines and uses thereof in the treatment cancer” (Bayer Intellectual Property GmbH, priority 2011, dated 2017).
Structures can show the parent of a compound that is named as a salt. Where two headings read alike, the source gives them in different places.

How the values were obtained:
[1] = molecular target: human FGFR-3 (Homo sapiens (Human), UniProt P22607); experiment: FGFR-3 kinase assay (TR-FRET); format: biochemical; conditions: 10 μM ATP; compounds of the invention
human FGFR-3, sequence (P22607 397-806): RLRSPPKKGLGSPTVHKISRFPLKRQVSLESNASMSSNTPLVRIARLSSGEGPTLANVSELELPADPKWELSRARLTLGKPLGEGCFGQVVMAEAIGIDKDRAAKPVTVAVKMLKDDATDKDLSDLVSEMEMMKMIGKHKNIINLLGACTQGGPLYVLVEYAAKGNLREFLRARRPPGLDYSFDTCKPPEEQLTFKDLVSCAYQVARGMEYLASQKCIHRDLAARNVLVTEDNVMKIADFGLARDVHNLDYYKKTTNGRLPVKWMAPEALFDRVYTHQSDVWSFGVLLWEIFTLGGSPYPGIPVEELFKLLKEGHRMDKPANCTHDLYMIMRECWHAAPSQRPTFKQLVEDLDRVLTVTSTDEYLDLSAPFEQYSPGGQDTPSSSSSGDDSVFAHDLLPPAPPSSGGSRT

[2] = molecular target: human mTOR (Homo sapiens (Human), UniProt P42345); experiment: mTOR kinase assay (TR-FRET, for comparative purposes); format: biochemical; conditions: for inhibition at 1 µM: read-out: mTOR % inhibition @ 1 μM
human mTOR, sequence (P42345 1360-2549): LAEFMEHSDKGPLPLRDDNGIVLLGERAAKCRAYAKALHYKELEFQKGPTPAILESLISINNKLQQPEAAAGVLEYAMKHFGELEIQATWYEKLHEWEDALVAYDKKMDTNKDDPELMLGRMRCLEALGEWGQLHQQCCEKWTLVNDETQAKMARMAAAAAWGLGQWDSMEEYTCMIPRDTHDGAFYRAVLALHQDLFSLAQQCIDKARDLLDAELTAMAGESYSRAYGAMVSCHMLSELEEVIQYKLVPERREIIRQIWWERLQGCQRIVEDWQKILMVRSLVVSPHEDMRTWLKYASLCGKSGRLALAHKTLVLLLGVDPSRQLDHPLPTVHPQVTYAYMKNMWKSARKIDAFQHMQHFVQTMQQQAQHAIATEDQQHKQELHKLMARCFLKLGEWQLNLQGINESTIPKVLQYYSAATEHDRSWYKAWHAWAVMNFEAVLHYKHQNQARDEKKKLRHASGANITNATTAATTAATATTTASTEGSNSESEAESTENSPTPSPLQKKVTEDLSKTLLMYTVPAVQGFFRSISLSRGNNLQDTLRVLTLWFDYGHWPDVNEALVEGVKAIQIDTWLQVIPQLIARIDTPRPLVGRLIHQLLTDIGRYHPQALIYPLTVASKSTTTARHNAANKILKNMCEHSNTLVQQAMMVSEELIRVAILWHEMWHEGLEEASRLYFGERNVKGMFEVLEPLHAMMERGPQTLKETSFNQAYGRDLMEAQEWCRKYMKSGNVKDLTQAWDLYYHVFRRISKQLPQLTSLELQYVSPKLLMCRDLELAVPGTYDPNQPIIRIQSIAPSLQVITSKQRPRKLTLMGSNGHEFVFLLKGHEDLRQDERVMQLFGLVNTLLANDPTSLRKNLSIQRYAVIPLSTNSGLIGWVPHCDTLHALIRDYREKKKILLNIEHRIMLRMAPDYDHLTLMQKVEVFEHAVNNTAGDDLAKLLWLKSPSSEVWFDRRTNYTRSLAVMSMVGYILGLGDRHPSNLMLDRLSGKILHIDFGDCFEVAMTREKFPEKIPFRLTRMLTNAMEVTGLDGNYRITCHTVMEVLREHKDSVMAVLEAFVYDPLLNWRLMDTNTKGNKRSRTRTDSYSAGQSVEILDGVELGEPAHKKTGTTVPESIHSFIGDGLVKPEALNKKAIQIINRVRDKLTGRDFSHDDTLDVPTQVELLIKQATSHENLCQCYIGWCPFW
Source text: mTOR inhibitory activity of the compounds of the present invention was quantified employing the TR-FRET based mTOR assay as described in the following paragraphs: Recombinant fusion tagged mTOR protein [glutathione-S-transferase (GST) fused to human mTOR amino acids from 1360 to 2549], expressed in insect cells and purified by glutathione-sepharose affinity chromatography, was purchased from Invitrogen (Cat.-No. 4753) and used as enzyme. As substrate for the kinase reaction, a recombinant fusion protein of GFP and 4E-BP1 (purchased from Invitrogen, Cat.-No. PV4759) was used. Test compounds were dissolved in DMSO to generate 10 mM stock solutions. […] The resulting mixture was incubated for 1 h at 22° C. to allow formation of the complex between the phosphorylated substrate and the Tb-chelate labelled antibody. Subsequently, the amount of phosphorylated substrate was evaluated by measurement of the resonance energy transfer from the Tb-chelate to the GFP. For this, the fluorescence emissions at 495 nm and 520 nm after excitation at 340 nm was measured in an Envision 2104 multilabel reader (Perkin-Elmer). The ratio of the emissions at 520 nm and at 495 nm was taken as the measure for the amount of phosphorylated substrate.

[3] = 1 μM test compound, mean inhibition values

SMILES | IC50 [1] | also measured
COc1cc(C)cc2cc(-c3c(CNC(C)C(N)=O)cn4ncnc(N)c34)sc12 (racemic) [Example 12, rac-N^2-{[4-Amino-5-(7-methoxy-5-methyl-1-benzothiophen-2-yl)pyrrolo[2,1-f][1,2,4]triazin-6-yl]-methyl}alaninamide] | 11.6 nM | inhibition at 1 µM [2, 3]: 7.2%
COc1cc(C)cc2cc(-c3c(CN4CCC(O)C4)cn4ncnc(N)c34)sc12 (racemic) [Example 18, rac-1-{[4-Amino-5-(7-methoxy-5-methyl-1-benzothiophen-2-yl)pyrrolo[2,1-f][1,2,4]triazin-6-yl]-methyl}pyrrolidin-3-ol dihydrochloride] | 1.3 nM | mTOR % inhibition @ 1 μM [2, 3]: no inhib. effect detect.
COc1cc(C)cc2cc(-c3c(CN4CCCC4C(N)=O)cn4ncnc(N)c34)sc12 (racemic) [Example 19, rac-1-{[4-Amino-5-(7-methoxy-5-methyl-1-benzothiophen-2-yl)pyrrolo[2,1-f][1,2,4]triazin-6-yl]-methyl}prolinamide dihydrochloride] | 11.2 nM | inhibition at 1 µM [2]: 1.8%
COc1cc(C)cc2cc(-c3c(CNCC(C)O)cn4ncnc(N)c34)sc12 (racemic) [Example 26, rac-1-({[4-Amino-5-(7-methoxy-5-methyl-1-benzothiophen-2-yl)pyrrolo[2,1-f][1,2,4]triazin-6-yl]-methyl}amino)propan-2-ol dihydrochloride] |  | mTOR % inhibition @ 1 μM [2, 3]: no inhib. effect detect.
COc1cc(C)cc2cc(-c3c(COCCCO)cn4ncnc(N)c34)sc12 [Example 1, 3-{[4-Amino-5-(7-methoxy-5-methyl-1-benzothiophen-2-yl)pyrrolo[2,1-f][1,2,4]triazin-6-yl]-methoxy}propan-1-ol hydrochloride] | 18.2 nM | inhibition at 1 µM [2]: 1.9%
CCOC(=O)COCc1cn2ncnc(N)c2c1-c1cc2cc(C)cc(OC)c2s1 [Example 4, Ethyl {[4-amino-5-(7-methoxy-5-methyl-1-benzothiophen-2-yl)pyrrolo[2,1-f][1,2,4]triazin-6-yl]-methoxy}acetate] | 49.9 nM | inhibition at 1 µM [2, 3]: 8.4%
COc1cc(C)cc2cc(-c3c(COCC(=O)O)cn4ncnc(N)c34)sc12 [Example 5, {[4-Amino-5-(7-methoxy-5-methyl-1-benzothiophen-2-yl)pyrrolo[2,1-f][1,2,4]triazin-6-yl]-methoxy}acetic acid] | 72.4 nM | inhibition at 1 µM [2, 3]: 2.7%
COc1cc(C)cc2cc(-c3c(COCCO)cn4ncnc(N)c34)sc12 [Example 7, 2-{[4-Amino-5-(7-methoxy-5-methyl-1-benzothiophen-2-yl)pyrrolo[2,1-f][1,2,4]triazin-6-yl]-methoxy}ethanol hydrochloride] | 5.8 nM | inhibition at 1 µM [2]: 4.7%
COc1cc(C)cc2cc(-c3c(CO)cn4ncnc(N)c34)sc12 [Example 32, [4-Amino-5-(7-methoxy-5-methyl-1-benzothiophen-2-yl)pyrrolo[2,1-f][1,2,4]triazin-6-yl]methanol] |  | mTOR % inhibition @ 1 μM [2, 3]: no inhib. effect detect.
COc1cc(C)cc2cc(-c3c(COCC#N)cn4ncnc(N)c34)sc12 [Example 40] | 9.1 nM | 
COc1cc(C)cc2cc(-c3c(COCCCC#N)cn4ncnc(N)c34)sc12 [Example 41] | 12.7 nM | 
COc1cc(C)cc2cc(-c3c(COCCN4CCOCC4)cn4ncnc(N)c34)sc12 [Example 42] | 30 nM | 
COc1cc(C)cc2cc(-c3c(COCCN4CCCC4)cn4ncnc(N)c34)sc12 [Example 43] | 10.7 nM | 
COc1cc(C)cc2cc(-c3c(COCCN4CCCCC4)cn4ncnc(N)c34)sc12 [Example 44] | 9.3 nM | 
COc1cc(C)cc2cc(-c3c(COCCCN(C)C)cn4ncnc(N)c34)sc12 [Example 45] | 24.8 nM | 
COCCN(Cc1cn2ncnc(N)c2c1-c1cc2cc(C)cc(OC)c2s1)C(C)C [Example 49] | 14.2 nM | 
COc1cc(C)cc2cc(-c3c(CN4CC(OC)C4)cn4ncnc(N)c34)sc12 [Example 53] | 15.1 nM | 
COc1cc(C)cc2cc(-c3c(CN4CCN(C5CC5)CC4)cn4ncnc(N)c34)sc12 [Example 58] | 6.2 nM | 
COc1cc(C)cc2cc(-c3c(CN4CCC(OC)CC4)cn4ncnc(N)c34)sc12 [Example 60] | 12.5 nM | 
COc1cc(C)cc2cc(-c3c(CN(C)CC(F)(F)F)cn4ncnc(N)c34)sc12 [Example 61] | 14.6 nM | 
COc1cc(C)cc2cc(-c3c(CN4CCCC(C(N)=O)C4)cn4ncnc(N)c34)sc12 (centres unmarked) [Example 69] | 4.4 nM | 
COCCN(C)Cc1cn2ncnc(N)c2c1-c1cc2cc(C)cc(OC)c2s1 [Example 70] | 7.4 nM | 
COc1cc(C)cc2cc(-c3c(CNC4CCS(=O)(=O)C4)cn4ncnc(N)c34)sc12 (centres unmarked) [Example 72] | 5.5 nM | 
CCC(C)NCc1cn2ncnc(N)c2c1-c1cc2cc(C)cc(OC)c2s1 (centres unmarked) [Example 74] | 5 nM | 
COc1cc(C)cc2cc(-c3c(CN4CCOC(C)C4)cn4ncnc(N)c34)sc12 (centres unmarked) [Example 76] | 4.9 nM | 
COc1cc(C)cc2cc(-c3c(CN4CCS(=O)(=O)CC4)cn4ncnc(N)c34)sc12 [Example 77] | 15.3 nM | 

Now from value to compound, other results behind:

IC50 [1] | SMILES | also measured
2.2 nM | COc1cc(C)cc2cc(-c3c(COC[C@H](C)O)cn4ncnc(N)c34)sc12 [Example 2, (2S)-1-{[4-Amino-5-(7-methoxy-5-methyl-1-benzothiophen-2-yl)pyrrolo[2,1-f][1,2,4]triazin-6-yl]-methoxy}propan-2-ol] | inhibition at 1 µM [2, 3]: 6.1%
4.2 nM | COc1cc(C)cc2cc(-c3c(CO[C@@H](C)CO)cn4ncnc(N)c34)sc12 [Example 3, (2S)-2-{[4-Amino-5-(7-methoxy-5-methyl-1-benzothiophen-2-yl)pyrrolo[2,1-f][1,2,4]triazin-6-yl]-methoxy}propan-1-ol] | inhibition at 1 µM [2, 3]: 2.5%
4.4 nM | COc1cc(C)cc2cc(-c3c(COCC(N)=O)cn4ncnc(N)c34)sc12 [Example 6, 2-{[4-Amino-5-(7-methoxy-5-methyl-1-benzothiophen-2-yl)pyrrolo[2,1-f][1,2,4]triazin-6-yl]-methoxy}acetamide] | inhibition at 1 µM [2, 3]: 11.3%
0.2 nM | COc1cc(C)cc2cc(-c3c(COCCN)cn4ncnc(N)c34)sc12 [Example 8, 6-[(2-Aminoethoxy)methyl]-5-(7-methoxy-5-methyl-1-benzothiophen-2-yl)pyrrolo[2,14][1,2,4]-triazin-4-amine dihydrochloride] | inhibition at 1 µM [2, 3]: 4.7%
0.2 nM | COc1cc(C)cc2cc(-c3c(CNC(C)=O)cn4ncnc(N)c34)sc12 [Example 9, N-{[4-Amino-5-(7-methoxy-5-methyl-1-benzothiophen-2-yl)pyrrolo[2,1-f][1,2,4]triazin-6-yl]-methyl}acetamide] | mTOR % inhibition @ 1 μM [2, 3]: no inhib. effect detect.
1.8 nM | COc1cc(OC)c2sc(-c3c(CN4CCNC(=O)C4)cn4ncnc(N)c34)cc2c1 [Example 33, 4-{[4-Amino-5-(5,7-dimethoxy-1-benzothiophen-2-yl)pyrrolo[2,1-f][1,2,4]triazin-6-yl]methyl}-piperazin-2-one] | 
1 nM | COc1cc(C)cc2cc(-c3c(CN4CCCC4)cn4ncnc(N)c34)sc12 [Example 47] | 
3.6 nM | COc1cc(C)cc2cc(-c3c(CNC4CC4)cn4ncnc(N)c34)sc12 [Example 48] | 
0.1 nM | COc1cc(C)cc2cc(-c3c(CN4CCN(C)CC4)cn4ncnc(N)c34)sc12 [Example 50] | 
0.7 nM | COc1cc(C)cc2cc(-c3c(CN4CCCCC4)cn4ncnc(N)c34)sc12 [Example 51] | 
3.8 nM | COc1cc(C)cc2cc(-c3c(CN4CCOC(C)(C)C4)cn4ncnc(N)c34)sc12 [Example 52] | 
2.3 nM | COc1cc(C)cc2cc(-c3c(CN4CCCOCC4)cn4ncnc(N)c34)sc12 [Example 54] | 
1.4 nM | COc1cc(C)cc2cc(-c3c(CN4CCNC(=O)C4C)cn4ncnc(N)c34)sc12 (centres unmarked) [Example 55] | 
3.1 nM | COc1cc(C)cc2cc(-c3c(CN4CNC(=O)C4)cn4ncnc(N)c34)sc12 [Example 56] | 
3 nM | COc1cc(C)cc2cc(-c3c(CN(C)C4CCS(=O)(=O)C4)cn4ncnc(N)c34)sc12 (centres unmarked) [Example 57] | 
4 nM | COc1cc(C)cc2cc(-c3c(CN(C)CC(C)OC)cn4ncnc(N)c34)sc12 (centres unmarked) [Example 59] | 
2.6 nM | COc1cc(C)cc2cc(-c3c(CN4CCCC(OC)C4)cn4ncnc(N)c34)sc12 (centres unmarked) [Example 62] | 
3 nM | COc1cc(C)cc2cc(-c3c(CN4CCC(F)(F)C4)cn4ncnc(N)c34)sc12 [Example 63] | 
1.1 nM | COc1cc(C)cc2cc(-c3c(CN4CCC(C(N)=O)CC4)cn4ncnc(N)c34)sc12 [Example 64] | 
0.6 nM | COc1cc(C)cc2cc(-c3c(CN4CC[C@@H](N(C)C)C4)cn4ncnc(N)c34)sc12 [Example 65] | 
0.5 nM | COc1cc(C)cc2cc(-c3c(CN4CC[C@H](N(C)C)C4)cn4ncnc(N)c34)sc12 [Example 66] | 
0.6 nM | COc1cc(C)cc2cc(-c3c(CN4CCCC(N(C)C)C4)cn4ncnc(N)c34)sc12 (centres unmarked) [Example 67] | 
0.8 nM | COc1cc(C)cc2cc(-c3c(CN4CCCN(C)CC4)cn4ncnc(N)c34)sc12 [Example 68] | 
2.3 nM | COc1cc(C)cc2cc(-c3c(CNC4CCOC4)cn4ncnc(N)c34)sc12 (centres unmarked) [Example 73] | 
